Results on 90 molecules are retold here after a melting point compilation (Tetko et al.; mined from patent text by program, amines drawn as free bases though some values may be those of a salt).

SMILES strings stand for the structures.

By melting point is commonly meant the temperature of the solid-liquid transition. `COC(=O)c1ccc(/C=C/C(=O)NOC2CCCCO2)s1` (stereo not given) yielded a melting point of 177 °C.

The molecule `OC1CSC(Oc2ccc(-c3ccnc(F)c3)nc2)C(O)C1O` (stereo not given) yielded a melting point of 219 °C.

With `CC(C)NC(=C1Sc2ccccc2C1=O)c1ccccc1`, the melting point lay within 112 to 113 °C.

Molecule `CC(C)NCC(O)c1cc(CO)cc(OCc2ccccc2)c1` (stereo not given) had a melting point of 84 to 89 °C.

`Cc1ccccc1CC(=NC#N)NC(NC(=O)Cc1ccc2c(c1)OCCO2)C(C)(C)C` (stereo not given): the melting point was in the range of 180 to 181 °C.

Molecule `CCCCCCCCCCCCCCCCSCC(CN)Oc1ccon1` (stereo not given) gave a melting point of 73 to 74 °C.

Molecule `CN(Cc1sc2c(=O)c(C(=O)NCc3ccc(Cl)cc3)cn(C)c2c1COCC[Si](C)(C)C)CC(O)c1ccc2ccccc2n1` (stereo not given) registered a melting point of 163 to 166 °C.

In the case of `O=C(Nc1ccc(-n2nc(C(F)(F)F)cc2C(F)(F)F)cc1)c1ccncc1`, the melting point lay within 156 to 157 °C.

In turn, `CC1(C)OC(=O)c2c(cccc2OS(=O)(=O)C(F)(F)F)O1` displayed a melting point of 115 °C.

In turn, `CC(C)(CC(=O)C(=O)Nc1ccc2c(c1)COC2=O)c1ccccc1` displayed a melting point of 132 to 134 °C.

`CCCc1c(OCCOCCOc2c(C(C)=O)ccc(OCCCCCC(=O)O)c2CCC)ccc(C(C)=O)c1O`: the melting point was in the range of 55 to 57 °C.

As for `Fc1ccc(CCN2CCC(N3CCc4ccc(Br)cc43)CC2)cc1`, the melting point was 99 to 101 °C.

In the case of `CC(C)(C)C(F)(F)c1ccc(C[C@H]2NC(=O)O[C@H]2c2cccc(Cl)c2)cc1` (racemic), the melting point fell in the range of 188 to 190 °C.

`Cc1cc(C)cc(N(CCN)Cc2ccc3nc(NCCCN4CCOCC4)n(Cc4nc(C)ccc4O)c3c2)c1` had a melting point of 196 °C.

Turning to `CC(=O)Nc1cc(-c2c(-c3cccc(C)c3)nc3ccc(Cl)nn23)ccn1`, the melting point is 228 to 229 °C.

As to `Clc1cc(Cc2c(Cl)cccc2Cl)nc(Cl)n1`, the melting point was 106 to 107 °C.

`CC1=C(N)C(=O)C2CC1C2(C)C` (stereo not given) showed a melting point of 45 to 46 °C.

Molecule `Cc1nn(-c2cc3nc(S)sc3cc2Cl)c(=O)n1C(F)F` had a melting point of 201 to 203 °C.

Molecule `COC(=O)CCc1ccc(-n2ncn(-c3ccc(C#N)cc3)c2=O)cc1` showed a melting point of 213 to 215 °C.

The molecule `COc1cc(N)c(Cl)cc1C(=O)NCC1CCN(CCCCSc2ccccc2)CC1` had a melting point of 102 to 105 °C.

With `Cc1cccc(C)c1NC(=O)N(Cc1ccccc1)CC(c1ccccc1)c1ccccc1`, the melting point lay in the range of 205 to 208 °C.

For the molecule `O=Cc1ccc2c(c1)Cc1cccnc1O2`, the melting point lay within 171 to 173 °C.

For the molecule `c1ccc(C(CCN2CC3=C(C2)c2cccc4cccc3c24)(c2ccccc2)c2ccccc2)cc1`, the melting point is 159 to 168 °C.

`COc1nc2ccc(Br)cc2c2c1C(C)(O)c1ccccc1-2` (stereo not given): the melting point is 159 to 160 °C.

For the molecule `Nc1nccnc1OCc1cccnc1`, the melting point fell in the range of 120 to 122 °C.

`COc1cn(-c2cccc(-c3cnn(C)c3)c2F)nc(-c2ccnn2-c2ccccc2)c1=O` showed a melting point of 218 to 221 °C.

`C=CCSc1nnc(OCC)c2c1CCCC2` gave a melting point of 39 to 41 °C.

With `CCCCN1C(=O)CC(Sc2cc(C(C)(C)C)c(O)c(C(C)(C)C)c2)C1=O` (stereo not given), the melting point is 80 to 85 °C.

`CN(C)c1nc(N(C)Cc2ccccc2O)nc(N(C)Cc2ccccc2O)n1`: the melting point lay within 156 to 157 °C.

Regarding `CC(=O)N(O)CCOc1ccc(-c2ccc(C#N)cc2)cc1`, the melting point lay in the range of 174 to 175 °C.

`CCOC(=O)CSc1nccc(NCc2ccc(Cl)cc2)n1`: the melting point lay within 175 to 178 °C.

In the case of `OC(Cc1ccncc1)(c1ccccc1)c1ccccc1`, the melting point fell in the range of 154 to 155 °C.

`CCOc1ccc(Nc2n[nH]c(N)c2C#N)cc1` gave a melting point of 166 to 167 °C.

In turn, `Cc1ccc(CC(=O)NCc2cccc3c2C(=O)N(C2CCC(=O)NC2=O)C3=O)cc1F` (stereo not given) had a melting point of 148 to 150 °C.

For the molecule `O=C(O)c1cc(Cl)ccc1Nc1ccc(OCc2ccccc2)cc1`, the melting point lay within 189 to 191 °C.

Turning to `CC(C)NCCCC[C@@H](N)C(=O)O`, the melting point was 224 °C.

Molecule `O=c1[nH]c2ccccc2cc1-c1csc(-c2cccnc2)n1` showed a melting point of 197 to 198 °C.

The molecule `CCCCNC(=S)Nc1cc(Cl)ccc1N1CCOCC1` showed a melting point of 150 to 152 °C.

Molecule `CCOC(=O)C1NC(=O)C1OC` (stereo not given) came in with a melting point of 91 to 92 °C.

Molecule `CCOC(=O)c1cn(C)c2cnc3cc(F)c(N4CCCC(C)(C)C4)cc3c2c1=O` registered a melting point of 218 to 220 °C.

For `CCCCC1CCCC2=C1C(=O)c1ccccc1C2=O` (stereo not given), the melting point was in the range of 64 to 65 °C.

For `COc1ccc(Cl)cc1NC(=O)[C@H]1[C@H](c2ccccc2)C1(C)C` (relative stereo), the melting point fell in the range of 155 to 157 °C.

In the case of `Cc1cccc(NC(=O)NCC(=O)N(CC(=O)OC(C)(C)C)c2ccccc2Oc2ccccc2)c1`, the melting point was 204 °C.

`CC(C)C(=O)N1CCC(CNc2ccc(Cl)cc2C(=O)Nc2ccc(Cl)cn2)CC1` displayed a melting point of 99 to 101 °C.

`Cc1cc(C)c2c(c1O)C(NCc1cc(C(C)(C)C)c(O)c(C(C)(C)C)c1)CC2` (stereo not given) showed a melting point of 154 to 155 °C.

In turn, `O=C(c1cccc(OC(F)(F)F)c1)N1CCc2cc(S(=O)(=O)N3CC(c4ccccc4)NC3=O)ccc21` (stereo not given) displayed a melting point of 129 to 131 °C.

In turn, `O=C(O)C(CC1CCCC1)c1ccc(S(=O)(=O)C2CCCC2)cc1` (stereo not given) registered a melting point of 165 to 167 °C.

Molecule `CN1C(=O)CCC2(C)C3CCC4(C)C(OC(=O)NCc5ccccc5)CCC4C3CCC12` (stereo not given) displayed a melting point of 216 to 217 °C.

`CCOC(=O)CCc1c[nH]c(-c2cccs2)c1` showed a melting point of 39 to 40 °C.

Turning to `O=[N+]([O-])c1cccc(O)c1CO`, the melting point was 97 to 99 °C.

`COC(=O)c1ccc2oc3ccccc3c2c1C(=O)OC` yielded a melting point of 126 °C.

As for `COc1ccc(C(=O)CCC2OCCO2)cc1OC`, the melting point was 103 to 105 °C.

`NOP(=O)(c1ccccc1)c1ccccc1` showed a melting point of 104 °C.

Take `N#Cc1ccc(OCc2cccnc2)cc1F`: the melting point fell in the range of 105 to 110 °C.

Consider `Cn1cc(C2=C(c3cn(C(=O)C(C)(C)C)c4cc([N+](=O)[O-])ccc34)C(=O)NC2=O)c2ccccc21`, for which the melting point is over 245 °C.

Turning to `COc1ccc2c(c1)C(C(=O)O)=Cc1ccccc1O2`, the melting point came out at 150 °C.

For the molecule `FC(F)(F)c1cc(Nc2nc3ccccc3o2)cc(C(F)(F)F)c1`, the melting point fell in the range of 178 to 180 °C.

`O=C(O)C(ON=c1c2nccc3cccc(c32)n2cccc12)c1ccccc1` (stereo not given) displayed a melting point of 200 °C.

Regarding `CCOC(=O)/C=C/c1ccc(O)cc1OCc1ccccc1`, the melting point lay within 131 to 133 °C.

With `CN(C)c1cccc2c1c(=O)n(C)c1c(-c3nc(C4CC4)no3)ncn21`, the melting point was 214 °C.

For `C[C@@H](CS(=O)C(F)(F)C(F)F)[C@](O)(Cn1cncn1)c1ccc(Cl)cc1Cl` (stereo not given in full), the melting point lay within 153 to 155 °C.

As for `O=C(OCCc1ccccc1)c1ccc2c(O)c(O)ccc2c1`, the melting point was 164 to 166 °C.

In turn, `COCCOC(=O)c1c(-c2ccncc2)[nH]c(-c2ccncc2)c1C` yielded a melting point of 174 to 177 °C.

`Cc1cc2cc(CN3CCCCCC3)cnc2cc1NC(=O)c1ccc(-c2ccc(F)cc2)cc1F` displayed a melting point of 170 °C.

Take `CNC(=O)c1cccc(NC(=O)Cc2ccc([N+](=O)[O-])cc2)c1`: the melting point was in the range of 148 to 151 °C.

`O=C1C(=O)N(Cc2ccc(Nc3ncccn3)cc2)CCN1Cc1ccc(Nc2ncccn2)cc1` displayed a melting point of 226 to 228 °C.

`Fc1ccccc1COc1nn(Cc2ccccc2F)c2ncccc12` showed a melting point of 57 to 58 °C.

The molecule `Cc1cc(C)nc(SCC(CS(=O)(=O)c2ccc(-c3ccc(Cl)cc3)cc2)C(=O)O)n1` (stereo not given) gave a melting point of 170 to 172 °C.

`COc1ccc2c(c1)c(CC(=O)O)c(C)n2Cc1ccccc1OC` had a melting point of 176 to 180 °C.

As for `Cc1c(NC(=O)c2ccc(-c3ccc(F)cc3)cc2)ccc2cc(C(C)N3CCCCC3)cnc12` (stereo not given), the melting point fell in the range of 168 to 170 °C.

The molecule `Cc1nc[nH]c1CSCCNC1=NCCS(=O)(=O)N1` gave a melting point of 146 to 147 °C.

On to `NC(=O)COC(=O)c1ccccc1`, for which the melting point came out at 118 °C.

Molecule `CC(C)=CCC/C(C)=C/CSc1nc2ccccc2[nH]1` showed a melting point of 98 to 100 °C.

`Cn1nc(S(C)(=O)=O)c(=O)c2ccccc21` yielded a melting point of 202 to 204 °C.

As to `O=C(Nc1ccccc1)Nc1ccc(Cc2ccc(NC3=NCCN3)cc2)cc1`, the melting point was 167 to 170 °C.

`Oc1cccc2c1C(n1ccnc1)=CCC2` gave a melting point of 186 °C.

As for `COc1ccc2cccc(C(CO)CNC(C)=O)c2c1` (stereo not given), the melting point is 136 to 138 °C.

Consider `COc1ccc(-c2ccc(-c3ccccc3Cl)n2Cc2cccc(N)n2)cc1`, for which the melting point was 147 to 148 °C.

In the case of `CCNC=C(C(=O)C=Cc1ccccc1)C(=O)OC`, the melting point lay in the range of 92 to 94 °C.

As for `Cc1nc2cnccc2n1-c1ccc(CO)cc1`, the melting point fell in the range of 154 to 156 °C.

Consider `CC(=O)c1cc(C(F)(F)F)nn1-c1ccc(NC(=O)c2cccnc2F)cc1`, for which the melting point is 188 to 189 °C.

In the case of `O=c1ccc(-c2cccc(Br)c2)nn1CN1CCOCC1`, the melting point was in the range of 110 to 111 °C.

Molecule `C=CCC1CC(=O)N1C(C(=O)OCOC(=O)C(C)(C)C)=P(c1ccccc1)(c1ccccc1)c1ccccc1` (stereo not given) yielded a melting point of 140 to 142 °C.

`COc1cccc(OC)c1-c1nc2nccnc2[nH]1` yielded a melting point of 248 to 249 °C.

In turn, `Cn1ccc(=O)c(OCc2ccccc2)c1C(O)c1ccccn1` (stereo not given) gave a melting point of 202 to 204 °C.

Take `O=C(O)c1nc(-c2ccc(Cl)cc2Cl)c(-c2ccccc2)s1`: the melting point stood at 105 °C.

In turn, `C=C(C)C1CCC2C3C=CC4=CC(=O)CCC4(C)C3C(O)CC12C` (stereo not given) had a melting point of 153 to 155 °C.

Take `O=C(O)c1ccnc(Br)c1`: the melting point came out at 214 °C.

As to `N#Cc1nn(C2CCCC2)c2nc(-c3ccncc3)nc(N)c12`, the melting point fell in the range of 219 to 221 °C.

Molecule `CCCCCC(CCN1C(=O)NC2CC(=O)CC21)OC(C)=O` (stereo not given) came in with a melting point of 85 to 86 °C.
